Measurements: ChEMBL document CHEMBL4118045, “Vitepyrroloids A-D, 2-Cyanopyrrole-Containing Labdane Diterpenoid Alkaloids from the Leaves of Vitex trifolia” (J Nat Prod, 2017)
Calls of active or inactive are those of the source. No cut-off for these calls is given here.

Tests used:
[1] = tested on: CNE; experiment: Cytotoxicity against human CNE1 cells assessed as reduction in cell viability after 3 days by MTT assay; format: functional, cell-based
[2] = tested on: CNE-2; experiment: Cytotoxicity against human CNE2 cells assessed as reduction in cell viability after 3 days by MTT assay; format: functional, cell-based

Compound | Activity [1] | Activity [2] | IC50 ([1]; 72 h) [µM] | IC50 ([2]; CNE-2, 72 h) [µM]
CC(=O)O[C@H]1CC[C@@]2(C)[C@@H](CC[C@@H](C)[C@]2(O)CCc2ccn(CCCC(=O)O)c2C#N)C1(C)C | inactive | inactive | – | –
CC(=O)O[C@@H]1C[C@@H](C)[C@](O)(CCc2ccn(CCO)c2C#N)[C@@]2(C)CCCC(C)(C)[C@H]12 | inactive | inactive | – | –
CCOC(=O)CCCn1ccc(CC[C@@]2(O)[C@H](C)CC[C@H]3C(C)(C)CCC[C@@]32C)c1C#N | inactive | inactive | – | –
C[C@@H]1CC[C@H]2C(C)(C)CCC[C@]2(C)[C@@]1(O)CCc1cc[nH]c1C#N | – | – | 8.7 | > 10
